# Literature values as cited in patent US6506434B1, “Process for coating N-[N-(3,3-dimethylbutyl)-L-α-aspartyl]-L-phenylalanine 1-methyl ester onto a carrier” (The NutraSweet Company, priority 1999, dated 2003).
# Conditions: relative to sugar; stated as known
structure (smiles),measurement,value
"COC(=O)[C@H](Cc1ccccc1)NC(=O)[C@H](CC(=O)O)NCCC(C)(C)C [neotame, N-[N-(3,3-dimethylbutyl)-L-α-aspartyl]-phenylalanine 1-methyl ester]",sweetening potency (sweeter than sugar),about 8000 ×
